Article PMC9412555, “Benzothiazole Derivatives Endowed with Antiproliferative Activity in Paraganglioma and Pancreatic Cancer Cells: Structure–Activity Relationship Studies and Target Prediction Analysis” (Pharmaceuticals, 2022)

Key:
BxPC-3 = assay: MTT cell viability assay, BxPC-3; format: cell-based; details: for IC50: BxPC-3 pancreatic cancer, MTT; for IC50 / Inhibition Rate of Cell Viability: 72 h; for Selectivity Index (SI): IC50 in normal (HFF-1) fibroblast cells/IC50 in BxPC-3
Experimental: (§1) Compounds 4a–p were submitted to a preliminary MTT assay at a one-point screening concentration of 75 μM for 72 h, including 2b as a reference compound (Figure 3). […] The presence of the electron-donating methoxy group decreased the activity of 2b, in both the para and meta positions. […] Specifically, these compounds, namely 4d, 4e, 4f, 4h, 4i, 4j, 4k, 4l, and 4m, were tested at concentrations of 3, 6, 12 and 24 µM for 72 h. In addition, the nine compounds, together with 2b, were tested against human fibroblasts HFF-1, in order to evaluate their selectivity against tumor cells, as compared to normal cells. Effects on cancer or normal cell viability were extrapolated from concentration–response curves and are expressed as IC50 values in Table 2.
(§2) Pancreatic cancer (AsPC-1, BxPC-3, and Capan-2), paraganglioma (PTJ86i and PTJ64i) and normal fibroblast (HFF-1) cell lines were cultured as previously described. All compounds were dissolved in DMSO (stock solutions) and then diluted in culture media to the final working concentrations. In this way, the solutions were completely clear and devoid of any undissolved material by microscopic inspection. […] The effects of compounds 4a-p and 2b on cancer cell viability were tested by an MTT assay (Sigma-Aldrich, St. Louis, MO, USA), as described by Florio et al.. In the initial screening all compounds were tested at a one-point screening concentration of 75 μM for 72 h (five replica wells per each condition). […] For combined treatments, the experimental design was made according to the Chou–Talalay method for drug combination studies, as previously described.
(§3) IC50 values were extrapolated from concentration–response curves and calculated using the CompuSyn software. […] Based on this analysis, a CI < 1 indicates synergism, a CI = 1 indicates additive effects and a CI > 1 indicates antagonism. SI values were calculated as previously described. Comparisons of mean values were performed using an unpaired Student’s t-test. For multiple comparisons, a one-way ANOVA followed by Dunnett’s test were employed. A p-value < 0.05 was estimated as statistically significant.

Capan-2 = assay: MTT cell viability assay, Capan-2; format: cell-based; details: for IC50: Capan-2 pancreatic cancer, MTT; for IC50 / Inhibition Rate of Cell Viability: 72 h; for Selectivity Index (SI): IC50 in normal (HFF-1) fibroblast cells/IC50 in Capan-2
Experimental: as §1, §2, §3

PTJ64i = assay: MTT cell viability assay, PTJ64i; format: cell-based; details: for Selectivity Index (SI): IC50 in normal (HFF-1) fibroblast cells/IC50 in PTJ64i; for IC50: PTJ64i paraganglioma, MTT, 72 h
Experimental: as §1, §2, §3

HFF-1 = assay: MTT cell viability assay, normal fibroblasts HFF-1; format: cell-based, human; details: 72 h; for IC50: HFF-1 normal cells, MTT
Experimental: All compounds were dissolved in DMSO (stock solutions) and then diluted in culture media to the final working concentrations. […] The effects of compounds 4a-p and 2b on cancer cell viability were tested by an MTT assay (Sigma-Aldrich, St. Louis, MO, USA), as described by Florio et al. [17]. In the initial screening all compounds were tested at a one-point screening concentration of 75 μM for 72 h (five replica wells per each condition).
IC50 values were extrapolated from concentration–response curves and calculated using the CompuSyn software [45]. […] SI values were calculated as previously described [46]. Comparisons of mean values were performed using an unpaired Student’s t-test. For multiple comparisons, a one-way ANOVA followed by Dunnett’s test were employed. A p-value < 0.05 was estimated as statistically significant.

PTJ86i = assay: MTT cell viability assay, PTJ86i; format: cell-based; details: for Selectivity Index (SI): IC50 in normal (HFF-1) fibroblast cells/IC50 in PTJ86i; for IC50: PTJ86i paraganglioma, MTT, 72 h
Experimental: as §1, §2, §3

[1] = tested on: pancreatic (AsPC-1, BxPC-3, and Capan-2) and paraganglioma (PTJ64i and PTJ86i) cancer cell lines; assay: One-point MTT screening at 75 µM in cancer cell lines; format: cell-based; details: one-point screening concentration of 75 μM for 72 h, five cancer cell lines
Experimental: as §1, §2
Figure 3 Screening of the effects of novel derivatives (4a–p) on the viability of pancreatic (AsPC-1, BxPC-3, and Capan-2) and paraganglioma (PTJ64i and PTJ86i) cancer cell lines. The lead compound 2b was included as a reference and the histograms show the relative decrease of cancer cell viability observed after treatments, as compared to 2b. Cell viability was assessed by an MTT assay using compounds at 75 µM for 72 h. Data shown are the means ± SD of duplicate experiments with quintuplicate determinations and are calculated as ratios relative to the reference compound 2b (dashed line).

AsPC-1 = assay: MTT cell viability assay, AsPC-1; format: cell-based; details: for IC50: AsPC-1 pancreatic cancer, MTT; for IC50 / Inhibition Rate of Cell Viability: 72 h; for Selectivity Index (SI): IC50 in normal (HFF-1) fibroblast cells/IC50 in AsPC-1
Experimental: as §1, §2, §3

Row | Compound | melting point | IC50 (BxPC-3; Homo sapiens) [µM] | IC50 (AsPC-1; Homo sapiens, ASPC1) [µM] | Selectivity Index (SI) (BxPC-3) | Selectivity Index (SI) (Capan-2) | Selectivity Index (SI) (PTJ64i) | IC50 (PTJ64i) [µM] | Selectivity Index (SI) (PTJ86i) | IC50 (PTJ86i) [µM] | effect on cancer cell viability, potency compared with 2b [1] | Selectivity Index (SI) (AsPC-1) | IC50 (Capan-2; Homo sapiens) [µM] | IC50 (HFF-1; Homo sapiens) [µM] | also measured
1 | COc1ccc(NC(=O)C(Sc2nc3cc(Cl)ccc3s2)c2ccccc2)cc1 (stereo not shown) [4a, 2-[(5-Chlorobenzo[d]thiazol-2-yl)thio]-N-(4-methoxyphenyl)-2-phenylacetamide] | 190 °C (dec.) |  |  |  |  |  |  |  |  |  |  |  |  | 
2 | O=C(Nc1ccc(Cl)cc1)C(Sc1nc2cc(Cl)ccc2s1)c1ccccc1 (stereo not shown) [4b, 2-[(5-Chlorobenzo[d]thiazol-2-yl)thio]-N-(4-chlorophenyl)-2-phenylacetamide] | 178 to 180 °C |  |  |  |  |  |  |  |  |  |  |  |  | 
3 | O=C(Nc1ccc(C(F)(F)F)cc1)C(Sc1nc2cc(Cl)ccc2s1)c1ccccc1 (stereo not shown) [4d, 2-[(5-Chlorobenzo[d]thiazol-2-yl)thio]-2-phenyl-N-[4-(trifluoromethyl)phenyl] Acetamide] |  |  |  | 2.31 | 1.03 | 1.36 | 6.79 | 0.74 | 12.4 | greater antiproliferative activity than 2b | 1.20 |  |  | IC50 (BxPC-3): 3.99 µM; IC50 (Capan-2): 8.97 µM; IC50 (HFF-1): 9.23 µM; IC50 (AsPC-1): 7.66 µM
4 | O=C(Nc1ccc([N+](=O)[O-])cc1)C(Sc1nc2cc(Cl)ccc2s1)c1ccccc1 (stereo not shown) [4e, 2-[(5-Chlorobenzo[d]thiazol-2-yl)thio]-N-(4-nitrophenyl)-2-phenylacetamide] | 191 to 193 °C | 10.7 | 12.8 | 1.56 | 1.18 | 1.70 | 9.81 | 0.88 | 18.9 | greater antiproliferative activity than 2b | 1.31 | 14.1 | 16.7 | 
5 | O=C(Nc1ccc(Cl)c(Cl)c1)C(Sc1nc2cc(Cl)ccc2s1)c1ccccc1 (stereo not shown) [4m, 2-[(5-Chlorobenzo[d]thiazol-2-yl)thio]-N-(3,4-dichlorophenyl)-2-phenyl Acetamide] |  |  |  | 1.05 | 0.77 | 1.32 | 7.84 | 0.52 | 19.9 | greater antiproliferative activity than 2b | 1.22 |  |  | IC50 (BxPC-3): 9.81 µM; IC50 (Capan-2): 13.3 µM; IC50 (HFF-1): 10.3 µM; IC50 (AsPC-1): 8.49 µM
6 | O=C(Nc1cc([N+](=O)[O-])ccc1Br)C(Sc1nc2cc(Cl)ccc2s1)c1ccccc1 (stereo not shown) [4n, N-(2-Bromo-5-nitrophenyl)-2-[(5-chlorobenzo[d]thiazol-2-yl)thio]-2-phenyl Acetamide] |  |  |  |  |  |  |  |  |  | exception |  |  |  | 
7 | Nc1ccn([C@@H]2O[C@H](CO)[C@@H](O)C2(F)F)c(=O)n1 [GEM, gemcitabine, reference compound] |  |  |  |  |  |  |  |  |  |  |  |  |  | Inhibition Rate of Cell Viability (BxPC-3; BxPC-3, GEM 0.1 µM): 65.02%; Inhibition Rate of Cell Viability (BxPC-3; BxPC-3, GEM 1 µM): 64.65%; Inhibition Rate of Cell Viability (BxPC-3; BxPC-3, GEM 10 µM): 62.50%; Inhibition Rate of Cell Viability (Capan-2; Capan-2, GEM 0.1 µM): 26.87%; Inhibition Rate of Cell Viability (Capan-2; Capan-2, GEM 1 µM): 27.22%; Inhibition Rate of Cell Viability (Capan-2; Capan-2, GEM 10 µM): 38.65%; Inhibition Rate of Cell Viability (AsPC-1; AsPC-1, GEM 0.1 µM): 54.21%; Inhibition Rate of Cell Viability (AsPC-1; AsPC-1, GEM 1 µM): 63.25%; Inhibition Rate of Cell Viability (AsPC-1; AsPC-1, GEM 10 µM): 64.63%

More lines, main results first:

Row | melting point | IC50 (BxPC-3; Homo sapiens) [µM] | IC50 (AsPC-1; Homo sapiens, ASPC1) [µM] | Compound | Selectivity Index (SI) (BxPC-3) | Selectivity Index (SI) (Capan-2) | Selectivity Index (SI) (PTJ64i) | IC50 (PTJ64i) [µM] | Selectivity Index (SI) (PTJ86i) | IC50 (PTJ86i) [µM] | effect on cancer cell viability, potency compared with 2b [1] | Selectivity Index (SI) (AsPC-1) | IC50 (Capan-2; Homo sapiens) [µM] | IC50 (HFF-1; Homo sapiens) [µM] | also measured
8 | 243 °C (dec.) | 18.9 | 10 | CC(=O)Nc1ccc(NC(=O)C(Sc2nc3cc(Cl)ccc3s2)c2ccccc2)cc1 (stereo not shown) [4f, N-(4-Acetamidophenyl)-2-[(5-chlorobenzo[d]thiazol-2-yl)thio]-2-phenylacetamide] | 0.35 | 0.33 | 0.53 | 12.3 | 0.51 | 12.8 | greater antiproliferative activity than 2b | 0.65 | 20.1 | 6.54 | 
9 | 160 to 162 °C |  |  | COc1cccc(NC(=O)C(Sc2nc3cc(Cl)ccc3s2)c2ccccc2)c1 (stereo not shown) [4g, 2-[(5-Chlorobenzo[d]thiazol-2-yl)thio]-N-(3-methoxyphenyl)-2-phenylacetamide] |  |  |  |  |  |  | exception |  |  |  | 
10 |  | 12 | 12.2 | O=C(Nc1cccc(Cl)c1)C(Sc1nc2cc(Cl)ccc2s1)c1ccccc1 (stereo not shown) [4h, 2-[(5-Chlorobenzo[d]thiazol-2-yl)thio]-N-(3-chlorophenyl)-2-phenylacetamide] |  |  |  | 7.27 |  | 16.6 | greater antiproliferative activity than 2b |  | 17.7 | 11.6 | 
11 |  | 14 | 9.53 | O=C(Nc1cccc(C(F)(F)F)c1)C(Sc1nc2cc(Cl)ccc2s1)c1ccccc1 (stereo not shown) [4j, 2-[(5-Chlorobenzo[d]thiazol-2-yl)thio]-2-phenyl-N-[3-(trifluoromethyl)phenyl]acetamide] |  |  |  | 11.2 |  | 17.5 | greater antiproliferative activity than 2b |  | 24.2 | 18.1 | 
12 |  | 13.7 | 14.8 | CC(=O)Nc1cccc(NC(=O)C(Sc2nc3cc(Cl)ccc3s2)c2ccccc2)c1 (stereo not shown) [4l, N-(3-Acetamidophenyl)-2-[(5-chlorobenzo[d]thiazol-2-yl)thio]-2-phenylacetamide] | 4.91 | 1.99 | 6.62 | 10.1 | 3.37 | 19.9 | greater antiproliferative activity than 2b | 4.54 | 33.8 | 67.1 | Inhibition Rate of Cell Viability (BxPC-3; BxPC-3, 4l 0.5 µM): 6.00%; Inhibition Rate of Cell Viability (BxPC-3; BxPC-3, 4l 5 µM): 9.54%; Inhibition Rate of Cell Viability (BxPC-3; BxPC-3, 4l 50 µM): 70.50%; Inhibition Rate of Cell Viability (Capan-2; Capan-2, 4l 0.5 µM): 9.34%; Inhibition Rate of Cell Viability (Capan-2; Capan-2, 4l 5 µM): 30.25%; Inhibition Rate of Cell Viability (Capan-2; Capan-2, 4l 50 µM): 43.30%; Inhibition Rate of Cell Viability (HFF-1; HFF-1, 4l 0.5 µM): 0.00%; Inhibition Rate of Cell Viability (HFF-1; HFF-1, 4l 5 µM): 1.00%; Inhibition Rate of Cell Viability (HFF-1; HFF-1, 4l 50 µM): 17.69%; Inhibition Rate of Cell Viability (AsPC-1; AsPC-1, 4l 0.5 µM): 13.40%; Inhibition Rate of Cell Viability (AsPC-1; AsPC-1, 4l 5 µM): 18.87%; Inhibition Rate of Cell Viability (AsPC-1; AsPC-1, 4l 50 µM): 42.97%
13 | 179 to 180 °C |  |  | O=C(Nc1ccc(C(F)(F)F)cc1Br)C(Sc1nc2cc(Cl)ccc2s1)c1ccccc1 (stereo not shown) [4o, N-[2-Bromo-4-(trifluoromethyl)phenyl]-2-[(5-chlorobenzo[d]thiazol-2-yl)thio]-2-phenylacetamide] |  |  |  |  |  |  | exception |  |  |  | 
14 | 157 to 159 °C |  |  | O=C(Nc1cc(C(F)(F)F)ccc1Br)C(Sc1nc2cc(Cl)ccc2s1)c1ccccc1 (stereo not shown) [4p, N-[2-Bromo-5-(trifluoromethyl)phenyl]-2-[(5-chlorobenzo[d]thiazol-2-yl)thio]-2-phenylacetamide] |  |  |  |  |  |  | exception |  |  |  | 
